Laboratory results taken from paper PMC4915350 (Journal of Medicinal Chemistry, 2016).
pKi: −log10 of the molar value.

Legend:
[1] = target: hD2R (Homo sapiens, UniProt P14416); experiment: biochemical; type: binding
[2] = target: hD3R (Homo sapiens, UniProt P35462); experiment: biochemical; type: binding
[3] = target: D3R; settings: read-out: Ki at D3R, previously reported; using [3H]spiperone; cited from earlier work
[4] = system: D3R; settings: concentrations up to 1 μM, data not shown; ref 22 (McCall et al. 2005); cited from earlier work

Sequence of hD2R (P14416 whole entry): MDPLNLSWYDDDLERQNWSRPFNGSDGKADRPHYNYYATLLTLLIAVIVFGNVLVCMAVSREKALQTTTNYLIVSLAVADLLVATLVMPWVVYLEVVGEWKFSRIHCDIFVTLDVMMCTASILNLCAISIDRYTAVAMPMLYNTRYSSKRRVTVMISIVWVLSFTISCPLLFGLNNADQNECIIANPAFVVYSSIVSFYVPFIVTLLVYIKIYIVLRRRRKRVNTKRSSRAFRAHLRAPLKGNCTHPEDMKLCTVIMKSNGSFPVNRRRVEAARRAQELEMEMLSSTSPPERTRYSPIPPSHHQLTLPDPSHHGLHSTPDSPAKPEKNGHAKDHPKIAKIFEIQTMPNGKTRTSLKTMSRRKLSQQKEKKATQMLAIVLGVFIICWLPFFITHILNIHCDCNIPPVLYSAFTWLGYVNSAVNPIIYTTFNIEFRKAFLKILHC
Sequence of hD3R (P35462 whole entry): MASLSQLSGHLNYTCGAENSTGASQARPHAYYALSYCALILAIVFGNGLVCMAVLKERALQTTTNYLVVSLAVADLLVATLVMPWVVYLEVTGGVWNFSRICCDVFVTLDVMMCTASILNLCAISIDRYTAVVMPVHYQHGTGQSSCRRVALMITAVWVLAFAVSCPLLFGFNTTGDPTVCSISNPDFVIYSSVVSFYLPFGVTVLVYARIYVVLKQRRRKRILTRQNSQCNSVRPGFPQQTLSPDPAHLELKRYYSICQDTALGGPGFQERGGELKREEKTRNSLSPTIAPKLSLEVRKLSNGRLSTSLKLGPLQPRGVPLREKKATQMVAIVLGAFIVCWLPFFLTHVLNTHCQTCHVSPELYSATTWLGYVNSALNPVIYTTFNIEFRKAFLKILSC

CCCN(CCC)[C@@H]1Cc2cccc3c2n(c(=O)n3CCC)C1 [Compound 15, (R)-5-(Dipropylamino)-1-propyl-5,6-dihydro-4H-imidazo[4,5,1-ij]quinolin-2(1H)-one]
pKi [1]: ~8.52 | pKi [2]: ~8.52

CN[C@@H]1Cc2cccc3[nH]c(=O)n(c23)C1 [Compound 1, (R)-5,6-dihydro-5-(methylamino)-4H-imidazo[4,5,1-ij]quinolin-2(1H)-one (Z)-2-butenedioate]
pKi [3]: 5.71 | activity in D3R-mediated mitogenesis assay, previously reported [4]: no activity was observed

CCCN(CCC)[C@@H]1Cc2cccc3nc(O)n(c23)C1 [Compound 14a, (R)-5-(Dipropylamino)-5,6-dihydro-4H-imidazo[4,5,1-ij]quinolin-2(1H)-one]
fold decrease of D2R affinity relative to 13 [1]: ~4 fold

N[C@@H]1Cc2cccc3[nH]c(=O)n(c23)C1 [Compound 12a, (R)-5-Amino-5,6-dihydro-4H-imidazo[4,5,1-ij]quinolin-2(1H)-one]
fold reduction of D2R affinity relative to 1 [1]: ~6 fold | fold reduction of D3R affinity relative to 1 ([2]; [3H]7-OH-DPAT as tracer): ~6 fold

CCCN(C)[C@@H]1Cc2cccc3[nH]c(=O)n(c23)C1 [Compound 14c, (R)-5-[Methyl(propyl)amino]-5,6-dihydro-4H-imidazo[4,5,1-ij]quinolin-2(1H)-one]
D2R selectivity over D3R (D3R/D2R) [1]: ~8 fold
